Assay results from patent US20230242585A1, “IMMUNOMODULATORS” (Bristol-Myers Squibb Company, priority 2020, published 2023).
pIC50: −log10 of the molar value. Starred links: 1 amine or outer side, 2 acyl side, 3 side chain; linkers in the order of their positions; H or OH if unused. Positions of bridges follow the written chain, without caps; N, C: chain ends. Non-standard residues stand in square brackets, D forms with d. Residues, ends and D or L forms follow the SMILES beside them. X53 = O=C([C@H](CCNC[C@H](O)[C@@H](O)[C@H](O)C(O)CO[C@H]1O[C@H](CO)[C@H](O)[C@H](O)[C@H]1O)N[*:1])[*:2]; X39 = O=C([C@H](CNC[C@H](O)[C@@H](O)[C@H](O)C(O)CO[C@H]1O[C@H](CO)[C@H](O)[C@H](O)[C@H]1O)N[*:1])[*:2]; X43 = O=C([C@H](CNC[C@@H](O)[C@H](O)[C@@H](O)[C@@H](O)CO)N[*:1])[*:2]; X1 = O=C([C@H](CNC[C@H](O)[C@H](O)[C@H](O)[C@H](O)CO)N[*:1])[*:2]; X34 = O=C([C@H](CCNC[C@H](O)[C@@H](O)[C@@H](O)CO)N[*:1])[*:2]; X33 = O=C([C@H](CNC[C@H](O)[C@@H](O)[C@@H](O)CO)N[*:1])[*:2]; Trp(1-CH2COOH) = N[C@@H](Cc1cn(CC(=O)O)c2ccccc12)C(=O)O; X17 = O=C([C@H](CNCc1cncc2ccccc12)N[*:1])[*:2]; Hyp = O=C(O)[C@@H]1C[C@@H](O)CN1; NMeNle = CCCC[C@H](NC)C(=O)O; NMeA = CN[C@@H](C)C(=O)O; Dab = NCC[C@H](N)C(=O)O

biological target: T1, PD-1/PD-L1 (Homo sapiens, UniProt Q9NZQ7); test: PD-1/PD-L1 Homogenous Time-Resolved Fluorescence (HTRF) binding assay; details: PD-L1-His 10 nM, PD-1-Ig 20 nM
T1 construct: TVMV protease site (linker) (C); made in house; host or cells: HEK293T cells
Description: The ability of the compounds of formula (I) to bind to PD-L1 was investigated using a PD-1/PD-L1 Homogenous Time-Resolved Fluorescence (HTRF) binding assay.
The interaction of PD-1 and PD-L1 can be assessed using soluble, purified preparations of the extracellular domains of the two proteins. The PD-1 and PD-L1 protein extracellular domains were expressed as fusion proteins with detection tags, for PD-1, the tag was the Fc portion of Immunoglobulin (PD-1-Ig) and for PD-L1 it was the 6 histidine motif (PD-L1-His). All binding studies were performed in an HTRF assay buffer consisting of dPBS supplemented with 0.1% […] bovine serum albumin and 0.05% (v/v) Tween-20. For the h/PD-L1-His binding assay, inhibitors were pre-incubated with PD-L1-His (10 nM final) for 15 m in 4 µl of assay buffer, followed by addition of PD-1-Ig (20 nM final) in 1 µl of assay buffer and further incubation for 15 m. HTRF detection was achieved using europium crypate-labeled anti-Ig (1 nM final) and allophycocyanin (APC) labeled anti-His (20 nM final). Antibodies were diluted in HTRF detection buffer and 5 µl was dispensed on top of the binding reaction. The reaction mixture was allowed to equilibrate for 30 minutes and the resulting signal (665 nm/620 nm ratio) was obtained using an EnVision fluorometer. Additional binding assays were established between the human proteins PD-1-Ig/PD-L2-His (20 & 5 nM, respectively) and CD80-His/PD-L1-Ig (100 & 10 nM, respectively).
Recombinant Proteins: Human PD-1 (25-167) with a C-terminal human Fc domain of immunoglobulin G (Ig) epitope tag [hPD-1 (25-167)-3S-IG] and human PD-L1 (18-239) with a C-terminal His epitope tag [hPD-L1(18-239)-TVMV-His] were expressed in HEK293T cells and purified sequentially by ProteinA affinity chromatography and size exclusion chromatography. Human PD-L2-His and CD80-His was obtained through commercial sources.
Table 1 lists the IC50 values for representative examples of this disclosure measured in the PD-1/PD-L1 Homogenous Time-Resolved Fluorescence (HTRF) binding assay.

T1 sequence (Q9NZQ7 18-239): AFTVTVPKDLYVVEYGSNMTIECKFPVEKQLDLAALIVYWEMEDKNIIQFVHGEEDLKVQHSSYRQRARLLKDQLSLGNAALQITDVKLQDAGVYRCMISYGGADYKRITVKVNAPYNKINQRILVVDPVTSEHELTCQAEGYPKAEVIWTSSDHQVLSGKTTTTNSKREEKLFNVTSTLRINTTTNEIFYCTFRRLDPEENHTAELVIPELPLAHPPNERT

Point of comparison: `CCCC[C@H]1C(=O)N(C)[C@@H](CCCC)C(=O)N[C@@H](CC(C)C)C(=O)N[C@H](C(=O)NCC(N)=O)CSCC(=O)N[C@@H](Cc2ccc(O)cc2)C(=O)N(C)[C@@H](C)C(=O)N[C@@H](CC(N)=O)C(=O)N2CCC[C@H]2C(=O)N[C@@H](CNC[C@H](O)[C@@H](O)[C@@H](O)CO)C(=O)N[C@@H](CC(C)C)C(=O)N2C[C@H](O)C[C@H]2C(=O)N[C@@H](Cc2c[nH]c3ccccc23)C(=O)N[C@@H](CCNC[C@H](O)[C@@H](O)[C@@H](O)CO)C(=O)N[C@@H](Cc2cn(CC(=O)O)c3ccccc23)C(=O)N1C` [Example 2004] ({CH2CO}-Y[NMeA]NP[X33]L[Hyp]W[X34][Trp(1-CH2COOH)][NMeNle][NMeNle]LCG-NH2; thioether N-14), pIC50 8.17. Against it:
- CCCC[C@H]1C(=O)N(C)[C@@H](CCCC)C(=O)N[C@@H](CC(C)C)C(=O)N[C@H](C(=O)NCC(N)=O)CSCC(=O)N[C@@H](Cc2ccc(O)cc2)C(=O)N(C)[C@@H](C)C(=O)N[C@@H](CC(N)=O)C(=O)N2CCC[C@H]2C(=O)N[C@@H](CNC[C@@H](O)[C@H](O)[C@@H](O)[C@@H](O)CO)C(=O)N[C@@H](CC(C)C)C(=O)N2C[C@H](O)C[C@H]2C(=O)N[C@@H](Cc2c[nH]c3ccccc23)C(=O)N[C@@H](CCN)C(=O)N[C@@H](Cc2cn(CC(=O)O)c3ccccc23)C(=O)N1C [Example 2016] ({CH2CO}-Y[NMeA]NP[X43]L[Hyp]W[Dab][Trp(1-CH2COOH)][NMeNle][NMeNle]LCG-NH2; thioether N-14) — 0.53 log units higher, 8.70
- CCCC[C@H]1C(=O)N(C)[C@@H](CCCC)C(=O)N[C@@H](CC(C)C)C(=O)N[C@H](C(=O)NCC(N)=O)CSCC(=O)N[C@@H](Cc2ccc(O)cc2)C(=O)N(C)[C@@H](C)C(=O)N[C@@H](CC(N)=O)C(=O)N2CCC[C@H]2C(=O)N[C@@H](CNC[C@H](O)[C@H](O)[C@H](O)[C@H](O)CO)C(=O)N[C@@H](CC(C)C)C(=O)N2C[C@H](O)C[C@H]2C(=O)N[C@@H](Cc2c[nH]c3ccccc23)C(=O)N[C@@H](CCN)C(=O)N[C@@H](Cc2cn(CC(=O)O)c3ccccc23)C(=O)N1C [Example 2007] ({CH2CO}-Y[NMeA]NP[X1]L[Hyp]W[Dab][Trp(1-CH2COOH)][NMeNle][NMeNle]LCG-NH2; thioether N-14) — within 0.2 log units, 8.29
- CCCC[C@H]1C(=O)N(C)[C@@H](CCCC)C(=O)N[C@@H](CC(C)C)C(=O)N[C@H](C(=O)NCC(N)=O)CSCC(=O)N[C@@H](Cc2ccc(O)cc2)C(=O)N(C)[C@@H](C)C(=O)N[C@@H](CC(N)=O)C(=O)N2CCC[C@H]2C(=O)N[C@@H](CNC[C@H](O)[C@@H](O)[C@H](O)C(O)CO[C@H]2O[C@H](CO)[C@H](O)[C@H](O)[C@H]2O)C(=O)N[C@@H](CC(C)C)C(=O)N2C[C@H](O)C[C@H]2C(=O)N[C@@H](Cc2c[nH]c3ccccc23)C(=O)N[C@@H](CCNC[C@H](O)[C@@H](O)[C@H](O)C(O)CO[C@H]2O[C@H](CO)[C@H](O)[C@H](O)[C@H]2O)C(=O)N[C@@H](Cc2cn(CC(=O)O)c3ccccc23)C(=O)N1C (some centres unmarked) [Example 2041] ({CH2CO}-Y[NMeA]NP[X39]L[Hyp]W[X53][Trp(1-CH2COOH)][NMeNle][NMeNle]LCG-NH2; thioether N-14) — within 0.2 log units, 8.14
- CCCC[C@H]1C(=O)N(C)[C@@H](CCCC)C(=O)N[C@@H](CC(C)C)C(=O)N[C@H](C(=O)NCC(N)=O)CSCC(=O)N[C@@H](Cc2ccc(O)cc2)C(=O)N(C)[C@@H](C)C(=O)N[C@@H](CC(N)=O)C(=O)N2CCC[C@H]2C(=O)N[C@@H](CNCc2cncc3ccccc23)C(=O)N[C@@H](CC(C)C)C(=O)N2C[C@H](O)C[C@H]2C(=O)N[C@@H](Cc2c[nH]c3ccccc23)C(=O)N[C@@H](CCN)C(=O)N[C@@H](Cc2cn(CC(=O)O)c3ccccc23)C(=O)N1C [Example 1019] ({CH2CO}-Y[NMeA]NP[X17]L[Hyp]W[Dab][Trp(1-CH2COOH)][NMeNle][NMeNle]LCG-NH2; thioether N-14) — within 0.2 log units, 8.10
